Key:
[1] = test system: Pseudomonas aeruginosa CCUG # 59347; assay: MIC of established antibiotics, micro-broth dilution; conditions: CCUG59347, read-out: MIC Pseudomonas aeruginosa CCUG 59347
[2] = test system: Escherichia coli CCUG # 17620; assay: as above; conditions: CCUG17620, read-out: MIC Escherichia coli CCUG 17620
[3] = test system: Enterobacter cloacae CCUG # 6323T; assay: as above; conditions: read-out: MIC Enterobacter cloacae CCUG 6323T
[4] = test system: Pseudomonas aeruginosa CCUG # 17619; assay: as above; conditions: CCUG17619, read-out: MIC Pseudomonas aeruginosa CCUG 17619
[5] = test system: Enterobacter hormaechei CCUG # 58962; assay: as above; conditions: CCUG58962, read-out: MIC Enterobacter hormaechei CCUG 58962
[6] = test system: E. coli (CCUG #67180); assay: Antibacterial activity against isolates (Omnilog, Biolog redox dye); type: cell-based, Escherichia coli; conditions: Escherichia coli, ca-MH broth, 24 h, 37 °C
Procedure: (§1) The antibacterial activities of eight compounds (1, 3, 4, 6, 8, 10, 16, and 17) were tested against 10 different isolates of Gram-negative bacteria from human and other sources, two E. coli (CCUG #67180 and CCUG #17620/ATCC #25922, control strain), two K. pneumoniae (CCUG #58547 and CCUG #225T), two P. aeruginosa (CCUG #17619 and CCUG #59347), two A. baumannii (CCUG #57035 and CCUG #57250), E. cloacae (CCUG #6323T), and E. hormaechei (CCUG #58962) in a 96-well plate format. The compounds to test were 3-fold diluted in six steps in cation-adjusted Mueller-Hinton (ca-MH) broth to final concentrations spanning from 30 to 0.12 µM, i.e., a 1667–416,667 times dilution from the 50 mM stocks. Bacterial mass from the ten isolates grown overnight on horse blood or Mueller–Hinton agar plates was suspended in ca-MH and adjusted to a final inoculum cell density of ~5 × 10^5 CFU/mL. For all assays, Biolog redox dye A diluted 100× from the stock solution was used for measurements of all ten isolates (up to a total volume of 120 µL per well). All plates included one well per isolate with only inoculum and dye but no test compound (i.e., positive control) and one well per isolate with inoculum, dye and DMSO diluted 1667×, corresponding to the DMSO concentration in the wells with the highest concentration of test compound. All measurements were performed using the Omnilog microplate reader (Biolog, Hayward, CA, USA) where the 96-well plates were read at 15 min intervals for a total of 24 h at 37 °C.

[7] = test system: E. coli (CCUG #17620/ ATCC #25922); assay: as above; type: cell-based, Escherichia coli; conditions: Escherichia coli; ca-MH broth, 24 h, 37 °C
Procedure: as §1

[8] = test system: P. aeruginosa (CCUG #59347); assay: as above; type: cell-based, Pseudomonas aeruginosa; conditions: Pseudomonas aeruginosa, CCUG59347; ca-MH broth, 24 h, 37 °C
Procedure: as §1, with “The compounds to test were 3-fold diluted in six steps in cation-adjusted Mueller-Hinton (ca-MH) broth to final concentrations spanning from 30 to 0.12 µM, i.e., a 1667–416,667 times dilution from the 50 mM stocks.” left out

[9] = test system: A. baumannii (CCUG #57035); assay: as above; type: cell-based, Acinetobacter baumannii; conditions: Acinetobacter baumannii, CCUG57035; ca-MH broth, 24 h, 37 °C
Procedure: as §1, with “The compounds to test were 3-fold diluted in six steps in cation-adjusted Mueller-Hinton (ca-MH) broth to final concentrations spanning from 30 to 0.12 µM, i.e., a 1667–416,667 times dilution from the 50 mM stocks.” left out

[10] = test system: Acinetobacter baumannii CCUG # 57035; assay: MIC of established antibiotics, micro-broth dilution; conditions: CCUG57035, read-out: MIC Acinetobacter baumannii CCUG 57035
[11] = test system: E. hormaechei (CCUG #58962); assay: Antibacterial activity against isolates (Omnilog, Biolog redox dye); type: cell-based, Enterobacter hormaechei; conditions: Enterobacter hormaechei, CCUG58962; ca-MH broth, 24 h, 37 °C
Procedure: as §1, with “The compounds to test were 3-fold diluted in six steps in cation-adjusted Mueller-Hinton (ca-MH) broth to final concentrations spanning from 30 to 0.12 µM, i.e., a 1667–416,667 times dilution from the 50 mM stocks.” left out

[12] = test system: Acinetobacter baumannii CCUG # 57250; assay: MIC of established antibiotics, micro-broth dilution; conditions: CCUG57250, read-out: MIC Acinetobacter baumannii CCUG 57250
[13] = test system: P. aeruginosa (CCUG #17619); assay: Antibacterial activity against isolates (Omnilog, Biolog redox dye); type: cell-based, Pseudomonas aeruginosa; conditions: Pseudomonas aeruginosa, CCUG17619; ca-MH broth, 24 h, 37 °C
Procedure: as §1

[14] = test system: K. pneumoniae (CCUG #225T); assay: as above; type: cell-based, Klebsiella pneumoniae; conditions: Klebsiella pneumoniae; ca-MH broth, 24 h, 37 °C
Procedure: as §1

[15] = test system: A. baumannii (CCUG #57250); assay: as above; type: cell-based, Acinetobacter baumannii; conditions: Acinetobacter baumannii, ca-MH broth, 24 h, 37 °C
Procedure: as §1

[16] = test system: Klebsiella pneumoniae CCUG # 225T; assay: MIC of established antibiotics, micro-broth dilution; conditions: read-out: MIC Klebsiella pneumoniae CCUG 225T
[17] = test system: Escherichia coli CCUG # 67180; assay: as above; conditions: CCUG67180, read-out: MIC Escherichia coli CCUG 67180
[18] = test system: K. pneumoniae (CCUG #58547); assay: Antibacterial activity against isolates (Omnilog, Biolog redox dye); type: cell-based, Klebsiella pneumoniae; conditions: Klebsiella pneumoniae, CCUG58547; ca-MH broth, 24 h, 37 °C
Procedure: as §1, with “The compounds to test were 3-fold diluted in six steps in cation-adjusted Mueller-Hinton (ca-MH) broth to final concentrations spanning from 30 to 0.12 µM, i.e., a 1667–416,667 times dilution from the 50 mM stocks.” left out

[19] = test system: E. cloacae (CCUG #6323T); assay: as above; type: cell-based, Enterobacter cloacae; conditions: Enterobacter cloacae; ca-MH broth, 24 h, 37 °C
Procedure: as §1

[20] = test system: Klebsiella pneumoniae CCUG # 58547; assay: MIC of established antibiotics, micro-broth dilution; conditions: CCUG58547, read-out: MIC Klebsiella pneumoniae CCUG 58547

MIC [1]: > 560 µM
MIC [2]: 0.25 to 0.5 µM
MIC [3]: 9 to 36 µM
MIC [4]: 36 µM
MIC [5]: 280 µM
EC90 ([6]; CCUG67180, 24 h): 183 µM
EC50 ([6]; CCUG67180): 161 µM
EC50 [7]: 200 nM
EC90 [7]: 300 nM
EC50 [8]: 1.51 mM
EC90 [8]: 1.68 mM
EC50 [9]: 430 µM
EC90 [9]: 681 µM
MIC [10]: > 560 µM
EC50 [11]: 78.4 µM
EC90 [11]: 158 µM
MIC [12]: 36 µM
EC50 [13]: 13 µM
EC90 [13]: 18.4 µM
EC50 [14]: 200 nM
EC90 [14]: 300 nM
EC90 ([15]; CCUG57250, 24 h): 48 µM
EC50 ([15]; CCUG57250): 23.4 µM
MIC [16]: 0.25 µM
MIC [17]: 280 µM
EC50 [18]: 324 µM
EC90 [18]: 478 µM
EC50 [19]: 2100 nM
EC90 [19]: 4.5 µM
MIC [20]: 560 µM
SMILES: CO/N=C(\C(=O)N[C@@H]1C(=O)N2C(C(=O)O)=C(COC(C)=O)CS[C@H]12)c1csc(N)n1 [CTX, Cefotaxime, reference compound]
